Earlier results on two substances are cited in patent US20080063781A1, “Globin Digest Containing, Yeast-Fermented Beverages” (Suntory Limited, priority 2004, published 2008).

This data set deals with serum triglyceride levels. The following applies: reported in JP 9-255698 A.

As to Val-Thr-Leu [VTL], the “suppressive activity against the elevation of serum triglyceride levels” value is given as “strong suppressive activity against the elevation of serum triglyceride levels”.

In the case of “Val-Val-Tyr-Pro (VVYP; printed: Val-Val-Tyr-Pro)”, the “suppressive activity against the elevation of serum triglyceride levels” value was “strong suppressive activity against the elevation of serum triglyceride levels”.
